Experimental findings from patent US20060099284A1, “Composition containing an extract of fructus psoraleae for inhibiting anxiety and depression, improving memory and treating dementia” (priority 2004, published 2006) are described below.

The test has as its system male ICR mouse. Description: Passive avoidance test: dementia treatment test (scopolamine). Conditions: scopolamine 1 mg/kg intraperitoneally after training; test after 24 hours; FIG. 5B. Format: in vivo. How it is done: A passive avoidance test was carried out using a Gemini avoidance system (San Diego Instruments, USA) one hour after extracts (fraction T, fraction C, fraction CM, or fraction M) of Fructus Psoraleae were orally administered to a male ICR mouse (20 g) in a dose of 10 mg/kg. The test was modified on the basis of a method by Kumar, et al. and carried out as follows (Kumar, V., Singh, P. N., Muruganandan, A. V., Bhattacharya, Effect of Indian Hypericum perforatum Linn on animal models of cognitive dysfunction; J Ethnopharmacology 72, p 119-128, 2000).
On the first day of a training test, a mouse was put into the bright box to be acclimated for 300 seconds, prior to moving the mouse into a dark box by automatically opening a door. If the mouse moved into a dark box, it was electrically stimulated one second at 0.3 mA. As soon as a training session was finished, scopolamine was intraperitoneally administered in a dose of 1 mg/kg. At the test after 24 hours, the mouse was acclimated in the bright box for 300 seconds, prior to moving the mouse into the dark box by opening a door. The time to move into the dark box was measured at this time. […]

Consider `CN1[C@@H]2C[C@@H](OC(=O)[C@H](CO)c3ccccc3)C[C@H]1[C@@H]1O[C@@H]12` [scopolamine], for which the “memory failure compared with a control group” value turned out to be 66.6%.
